Laboratory results reported in patent US7635708B2, “Methods and pharmaceutical compositions for inhibiting tumor cell growth” (Dana-Farber Cancer Institute, priority 1996, dated 2009).
Like-named read-outs stand apart in the source and are kept apart here.

Tests used:
NIH-vector cells [1] = assay: BrdU incorporation, NIH-vector cells; assay type: cell-based
Description: (§1) […]. […] […].

HIB1B cells [2] = assay: BrdU incorporation, HIB1B cells; assay type: cell-based, mice
Description: as §1

3T3-F442A preadipocytes = assay: BrdU incorporation, 3T3-F442A preadipocytes; assay type: cell-based
Description: as §1

LS857 cells = assay: Adipocyte differentiation of primary liposarcoma cells LS857; assay type: cell-based, human
Method: (§2) Primary liposarcoma cells were isolated from selected freshly harvested tumors as described previously (Fletcher, J. A. et al. (1991) NEJM 324:436-443) and references therein. Primary cells were plated at a density of at least 2×10^5 cells/ml and cultured in 60 mm dishes in RPMI containing 15% Cosmic Calf Serum (Hyclone) and 5 μ/ml insulin. […] The NIH-PPARγ and NIH-vector cells were derived by retroviral infection as described (Tontonoz, P. et al., (1994) supra). Differentiated cells were stained for neutral lipid with Oil Red-O (Green, H. and Kehinde, O. (1974) Cell 1:113-116). BrdU labeling was performed using the labeling kit (Boehringer Mannheim) according to the manufacturers instructions.
Liposarcomas have presumably acquired one or more genetic defects that interferes with the course of normal adipocyte development (Crozat, A. et al., (1993) Nature 363:640-644; Fletcher, J. A. et al., (1991) supra). […]
When cultured in the presence of fetal bovine serum and insulin, conditions permissive for adipocyte differentiation, all three cell lines maintain a fibroblastic morphology. […] This experiment was performed at least twice with each cell strain with quantitatively and qualitatively similar results. […]

LS175 cells = assay: Adipocyte differentiation of primary liposarcoma cells LS175; assay type: cell-based, human; conditions: 10 μM, 7 days
[3] = system: primary liposarcoma cells; assay: Adipocyte differentiation of primary cells isolated from three human liposarcomas (LS857, LS175, LS707); assay type: cell-based; conditions: 7 days (pioglitazone 10 μM)
Method: (§3) BrdU labeling was performed using the labeling kit (Boehringer Mannheim) according to the manufacturers instructions.
To address this possibility, primary cells isolated from three human liposarcomas were cultured in vitro (see Materials and Methods). Primary cell strains LS857 and LS175 were derived from well differentiated tumors and LS707 was derived from a myxoid tumor (see table 2). […] A primary leiomyosarcoma cell line LM203 was cultured as a control. To confirm that these cultures consisted of malignant tumor-derived cells, cytogenetic analysis was performed.

[4] = system: LM203 lieomyosarcoma cells; assay: Lipid accumulation in primary leiomyosarcoma cell line LM203 (control); assay type: cell-based, human; conditions: which do not express PPARγ
NIH-PPARγ cells [5] = assay: Adipocytic differentiation (percent lipid-containing cells) of NIH-PPARγ cells; assay type: cell-based
Method: as §3
(§4) Extent of adipocytic differentiation is indicated as the percentage of lipid-containing cells.

NIH-vector cells [6] = assay: Adipocytic differentiation (percent lipid-containing cells) of NIH-vector cells; assay type: cell-based; conditions: for percent lipid-containing cells: NIH-vector, confluent cells, 7 days, 1 μM pioglitazone, 50 nM LG268
Method: as §2
We hypothesized that simultaneous exposure of competent cells to both PPARγ and R×R-specific ligands might provide a stronger adipogenic signal than a PPARγ ligand alone. The ability of the R×R-specific ligand LG268 to promote adipocyte differentiation was investigated using NIH-3T3 fibroblasts that express PPARγ from a retroviral vector (Tontonoz, P. et al. (1994) supra). We have previously shown that wild-type NIH-3T3 cells express R×Rα but not PPARγ. […] Similar results were obtained with the preadipocyte cell lines 3T3-L1 and 3T3-F442A which express both PPARγ and R×Rα (data not shown).
as §4

aP2 and adipsin = assay: Northern analysis of adipocyte-specific markers in LS857 liposarcoma cells; assay type: cell-based, human; conditions: Northern blotting
[7] = system: human liposarcoma cells (LS 857); assay: BrdU labeling and lipid staining of LS857 liposarcoma cells after induced differentiation (growth arrest); assay type: cell-based
NIH-PPARγ cells [8] = system: NIH-PPARγ cells
Method: BrdU incorporation experiment was performed as described in the protocol provided by the supplier (Boehringer Mannheim Biochemical). Briefly, cells grown on coverslips were labeled with 10 μM BrdU for 1 hr. Samples were washed and fixed with ethanol-glycine buffer and incubated with anti-BrdU monoclonal antibody. After incubation with anti-mouse-Ig-alkaline phosphatase followed by the substrate reaction, bound anti-BrdU antibody was visualized by light microscopy.
Cells undergoing DNA synthesis during exposure to BrdU were determined by immunohistochemical staining and considered as BrdU positive. The data represents the average of two independent experiments in which approximately 400 cells were counted per sample.

HIB1B cells [9] = assay: Adipose cell tumors from HIB1B cells implanted in nude mice; assay type: in vivo; conditions: for Tumor volume (mean (SD)): 0.2% mixture with powder food
Method: HIB1B cells (2×10^6 cells/animal) were injected subcutaneously to the upper back of twenty four male nude mice (7 weeks NCR […]). Thirteen days after injection, mice were treated with troglitazone (0.2% mixture with powder food). The development of tumor volume (measured in mm^3) was determined at days 14, 19 and 26 after troglitazone treatment compared to untreated controls. Each point represents the mean±[…] (SD) from 12 mice (except the last point, where n=11) treated or untreated with troglitazone for the indicated time intervals. To evaluate changes in tumor size, mean (SD) from 11-12 cases for each group of animal were examined to ensure an 85% chance of detecting a statistically significant difference (assuming a 2-sided sample t-test). […] Points A-C and D-F represent untreated and troglitazone-treated animals, respectively. Each point represents the mean±standard deviation from 12 mice (except the last point, where n=11). Statistically significant decreases in tumor volume were detected in implanted mice treated with troglitazone compared to untreated controls. […] The tumor volume was determined after 14, 19 and 26 days of treatment. Volumes are indicated with and without outlier points in each group of animals. A comparison of the tumor volume by two-sided 2-sample t-test after 26 days of treatment indicates p=0.0019 (without outlier); p=0.037 (with outlier). To evaluate the tumor increase over time, repeated measures analysis of variance were determined, p=0.0014 without outlier; p=0.044 with outlier.

NIH-PPARγ cells [10] = conditions: at the concentrations used (pioglitazone 5 μM, BRL49653 1 μM)
Method: 48 hr after transfection viral supernatants were collected and NIH3T3 cells were infected at 50% confluence with equal titers of recombinant virus. The supernatants were applied to the cells in DMEM containing 10% cosmic calf serum (Hyclone) and 4 μg/ml of polybrene. 24 hr after infection, cells were split and plated in DMEM containing 10% calf serum and 2 μg/ml puromycin to select infected cells. NIH-3T3 cell lines infected with empty vector or with viral expression vectors containing wild type or mutant forms of PPARγ cDNA as well as HIB1B and 3T3-F442A cell lines were cultured in DMEM containing 10% cosmic calf serum.
The same number of NIH-PPARγ, NIH-vector or HIB1B cells were cultured either in the presence (+) or absence (−) of PPARγ ligands. Cell numbers were determined at the indicated time points. The effect of ligands on cell growth is represented as percentage decrease in cell numbers in the treated plates relative to untreated control plates.

[11] = LS857, pioglitazone withdrawn 48 hours, then BrdU 48 hours

## CCc1ccc(CCOc2ccc(CC3SC(=O)NC3=O)cc2)nc1 (stereo not shown) [pioglitazone, 5-[4-[2-(5-ethyl-2-pyridyl)-ethoxy]benzyl]-2,4-thiazolidinedione]
NIH-vector cells [1]; NIH-vector cells, 5 days of treatment
  change of BrdU incorporation rate: did not change
NIH-vector cells [1]; NIH-vector, 5 μM pioglitazone for 5 days, BrdU pulse 1 hour
  BrdU positive %: 43%
HIB1B cells [2]; 5 μM pioglitazone for 5 days, BrdU pulse 1 hour
  BrdU positive %: 11%
HIB1B cells [2]; after 5 days of treatment
  decrease of BrdU incorporation into newly synthesized DNA: 85%
3T3-F442A preadipocytes; 3T3-F442A preadipocytes, after 5 days of treatment
  decrease in the BrdU incorporation rate: 80%
3T3-F442A preadipocytes; 3T3-F442A, 5 μM pioglitazone for 5 days, BrdU pulse 1 hour
  BrdU positive %: 14%
LS857 cells; LS 857 cells, 10 μM, 7 days
  degree of morphologically recognizable differentiation: 40%
LS175 cells
  degree of morphologically recognizable differentiation: 75%
[3]
  induction of differentiation (lipid accumulation, adipocyte morphology): readily accumulated lipid and adopted a morphology characteristic of mature cultured adipocytes
[4]
  lipid accumulation: No lipid accumulation
NIH-PPARγ cells [5]
  percent lipid-containing cells: 60-70%
NIH-vector cells [6]
  percent lipid-containing cells: 0%
aP2 and adipsin
  induction of the mRNAs encoding aP2 and adipsin: induction of two markers of terminal adipocyte differentiation
[7]; LS857, of those cells containing lipid
  cells containing lipid that stain positive for BrdU: 2%
[7]; [11]
  cells containing visible cytoplasmic lipid: 35%
  cells stained positive for BrdU incorporation: 28%
NIH-PPARγ cells [8]
  BrdU positive %: 9%

## Cc1c(C)c2c(c(C)c1O)CCC(C)(COc1ccc(CC3SC(=O)NC3=O)cc1)O2 (stereo not shown) [troglitazone, 5-[[4-[(3,4-dihydro-6-hydroxy-2,5,7,8-tetramethyl-2H-1-benzopyran-2-yl)methoxy]phenyl]methyl]-2,4-thiazolidinedione]
[3]
  induction of differentiation (lipid accumulation, adipocyte morphology): Induction of differentiation was also observed
HIB1B cells [9]; 14, 19 and 26 days of treatment
  size of adipose tumors in nude mice compared to untreated controls: effective in reducing the size of adipose tumors
HIB1B cells [9]; 14 days of treatment, w outlier
  Tumor volume (mean (SD)): 403(182) mm^3
HIB1B cells [9]; 14 days of treatment, w/o outlier
  Tumor volume (mean (SD)): 361(110) mm^3
HIB1B cells [9]; 19 days of treatment, w outlier
  Tumor volume (mean (SD)): 990(665) mm^3
HIB1B cells [9]; 19 days of treatment, w/o outlier
  Tumor volume (mean (SD)): 830(389) mm^3
HIB1B cells [9]; 26 days of treatment, w outlier
  Tumor volume (mean (SD)): 2601(2270) mm^3
HIB1B cells [9]; 26 days of treatment, w/o outlier
  Tumor volume (mean (SD)): 2032(1179) mm^3

## Cc1cc2c(cc1C1(c3ccc(C(=O)O)cn3)CC1)C(C)(C)CCC2(C)C [LG268]
LS857 cells; 50 nM LG268, 10 μM pioglitazone, alone or simultaneously
  adipocyte differentiation of LS857 cells: significant degree of adipocyte differentiation
NIH-PPARγ cells [5]; NIH-PPARγ, confluent cells, 7 days, 1 μM pioglitazone, 50 nM LG268
  percent lipid-containing cells: 50-65%
NIH-PPARγ cells [5]; confluent NIH-PPARγ cells, 7 days, 50 nM LG268, 1 μM pioglitazone
  stimulation of adipocyte differentiation: significant stimulation of adipocyte differentiation
NIH-vector cells [6]; NIH-vector cells
  adipogenic effect on NIH-vector cells: no effect
NIH-vector cells [6]
  percent lipid-containing cells: 0%

## CN(CCOc1ccc(CC2SC(=O)NC2=O)cc1)c1ccccn1 (stereo not shown) [BRL49653, rosiglitiazone]
NIH-PPARγ cells [10]
  cytotoxic effects: No obvious cytotoxic effects
